Results: patent US8598206B2, “Trypsin-like serine protease inhibitors, and their preparation and use” (The Medicines Company (Leipzig) GmbH, priority 2010, dated 2013)
Read-outs that look alike come from different tables or passages of the source.

Experiments:
plasmin [1] = biological target: T1, plasmin (Homo sapiens (Human), UniProt P00747); conditions: background literature; read-out: Ki / inhibition constant for plasmin; cited from earlier work
plasmin [2] = biological target: T1, plasmin; test: Determination of inhibition constants for human plasmin (chromogenic substrate); assay type: biochemical; conditions: 25° C., Chromozym PL substrate; read-out: h plasmin Ki
Procedure: (§1) Determination of the Inhibition Constants for Human Plasmin (h Plasmin) and Human Plasma Kallikrein (h PK)
(§2) The inhibitory effect for the individual enzymes was determined in analogy to a previously disclosed method (Stürzebecher et al., J. Med. Chem., 40, 3091-3099 (1997)).
(§3) 200 μl of TBS (0.05 M trishydroxymethylaminomethane; 0.154 M NaCl, 2% ethanol, pH 8.0)
(§4) 25 μl of substrate (4 mM, 2 mM and 1 mM tosyl-Gly-Pro-Lys-pNA=Chromozym PL from LOXO for plasmin and 3 mM, 1.5 mM and 1 mM H-D-Pro-Phe-Arg-pNA=S2302 from Chromogenix for PK, dissolved in H2O)
(§5) 2 μL of a test compound solution in 50% v/v DMSO/water
(§6) 50 μl of enzyme solution (plasmin from Calbiochem: 1.7 mU/ml in 0.154 M NaCl+0.1% BSA m/v; plasma kallikrein from Enzyme Research Lab.: 62 ng/ml in 0.154 M NaCl+0.1% BSA m/v)
(§7) For zero order kinetics, the reaction was stopped after 20 min by adding 15 μl of acetic acid (80% v/v), and the absorption at 405 nm was determined using a Microplate Reader (Multiscan Ascent™, from Thermo). In the case of pseudo-first order kinetics, the reaction rates in the equilibrium state were determined by continuously recording the change in absorbance at 405 nm. The Ki values were calculated by parameter fitting in accordance with the rate equation for competitive inhibition using the GraFit software, version 4. The Ki values are the average of at least three determinations.
Target sequence in this assay (P00747 581-810): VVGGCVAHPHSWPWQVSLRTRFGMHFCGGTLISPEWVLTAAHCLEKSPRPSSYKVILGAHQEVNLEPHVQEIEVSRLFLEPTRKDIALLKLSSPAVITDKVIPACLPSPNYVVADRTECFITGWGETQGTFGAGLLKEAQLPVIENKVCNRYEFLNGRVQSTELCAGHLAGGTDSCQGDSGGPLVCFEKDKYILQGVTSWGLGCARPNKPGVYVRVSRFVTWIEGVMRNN
Target sequence in this assay (P00747 97-580 partner): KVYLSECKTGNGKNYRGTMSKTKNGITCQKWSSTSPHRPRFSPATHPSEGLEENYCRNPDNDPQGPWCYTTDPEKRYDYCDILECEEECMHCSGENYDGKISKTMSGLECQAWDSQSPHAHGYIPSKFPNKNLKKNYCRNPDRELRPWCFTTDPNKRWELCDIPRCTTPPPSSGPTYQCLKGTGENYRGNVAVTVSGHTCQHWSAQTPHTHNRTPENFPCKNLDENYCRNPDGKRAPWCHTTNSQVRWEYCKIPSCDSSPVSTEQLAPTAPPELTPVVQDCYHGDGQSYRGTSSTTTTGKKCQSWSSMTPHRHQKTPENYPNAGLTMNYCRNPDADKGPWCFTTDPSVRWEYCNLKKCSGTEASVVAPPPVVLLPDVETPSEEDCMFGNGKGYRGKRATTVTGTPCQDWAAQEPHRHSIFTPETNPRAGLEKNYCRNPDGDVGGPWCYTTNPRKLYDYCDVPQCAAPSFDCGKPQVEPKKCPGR

plasma kallikrein = plasma kallikrein (Homo sapiens (Human), UniProt P03952); test: Determination of inhibition constants for human plasma kallikrein (chromogenic substrate); assay type: biochemical; conditions: 25° C., S2302 substrate; read-out: h PK Ki
plasma kallikrein, sequence (P03952 391-638): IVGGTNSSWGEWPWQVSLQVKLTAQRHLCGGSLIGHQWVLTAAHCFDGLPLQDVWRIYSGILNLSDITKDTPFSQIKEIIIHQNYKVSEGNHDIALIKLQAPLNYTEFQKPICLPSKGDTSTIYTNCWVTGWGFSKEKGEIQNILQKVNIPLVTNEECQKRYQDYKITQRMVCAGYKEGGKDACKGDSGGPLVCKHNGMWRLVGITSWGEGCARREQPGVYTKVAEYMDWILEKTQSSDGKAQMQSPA
plasma kallikrein, sequence (P03952 20-390 partner): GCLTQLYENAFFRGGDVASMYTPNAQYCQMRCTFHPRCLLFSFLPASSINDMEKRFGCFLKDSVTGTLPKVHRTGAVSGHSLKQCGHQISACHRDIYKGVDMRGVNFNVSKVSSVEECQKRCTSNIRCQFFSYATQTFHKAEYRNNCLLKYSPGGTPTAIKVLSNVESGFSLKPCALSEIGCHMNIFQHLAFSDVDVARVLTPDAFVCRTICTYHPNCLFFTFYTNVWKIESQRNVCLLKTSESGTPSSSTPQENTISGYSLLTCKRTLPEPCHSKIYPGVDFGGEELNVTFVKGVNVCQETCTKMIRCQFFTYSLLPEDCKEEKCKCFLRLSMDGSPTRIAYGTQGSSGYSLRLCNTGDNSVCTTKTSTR
Procedure: as §1, §2, §3, §4, §5, §6, §7

[3] = biological target: human activated protein C (Homo sapiens (Human), UniProt P04070); test: Inhibition of human activated protein C; assay type: biochemical; conditions: Pefachrome PCa substrate; read-out: h aPC Ki
human activated protein C, sequence (P04070 212-450): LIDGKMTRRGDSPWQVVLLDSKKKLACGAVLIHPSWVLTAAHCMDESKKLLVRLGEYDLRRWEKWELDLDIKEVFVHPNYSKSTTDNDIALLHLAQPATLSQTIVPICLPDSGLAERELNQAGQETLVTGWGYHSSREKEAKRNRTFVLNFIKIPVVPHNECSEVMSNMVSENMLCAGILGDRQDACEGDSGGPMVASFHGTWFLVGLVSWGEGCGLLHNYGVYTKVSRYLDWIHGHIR
human activated protein C, sequence (P04070 43-197 partner): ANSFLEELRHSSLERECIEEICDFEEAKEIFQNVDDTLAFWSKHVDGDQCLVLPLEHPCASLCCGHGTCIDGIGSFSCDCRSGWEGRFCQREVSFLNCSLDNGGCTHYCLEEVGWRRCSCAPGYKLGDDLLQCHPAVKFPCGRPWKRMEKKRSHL
Procedure: as §2, §3, §5, §7

human urinary kallikrein = human urinary kallikrein (Homo sapiens (Human), UniProt P06870); test: Inhibition of human urinary kallikrein; assay type: biochemical; conditions: S-2266 substrate; read-out: h uKK Ki
human urinary kallikrein, sequence (P06870 25-262): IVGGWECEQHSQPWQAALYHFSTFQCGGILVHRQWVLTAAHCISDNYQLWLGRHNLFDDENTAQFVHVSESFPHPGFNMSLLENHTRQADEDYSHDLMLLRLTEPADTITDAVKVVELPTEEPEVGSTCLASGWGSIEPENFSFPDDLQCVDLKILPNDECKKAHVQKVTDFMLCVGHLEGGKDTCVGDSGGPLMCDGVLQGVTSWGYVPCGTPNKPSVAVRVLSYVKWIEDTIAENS
Procedure: as §2, §3, §5, §7

[4] = biological target: human activated C1s complement component (Homo sapiens (Human), UniProt P09871); test: Inhibition of human C1s; assay type: biochemical; conditions: S2314 substrate; read-out: h C1s Ki
human activated C1s complement component, sequence (P09871 438-688): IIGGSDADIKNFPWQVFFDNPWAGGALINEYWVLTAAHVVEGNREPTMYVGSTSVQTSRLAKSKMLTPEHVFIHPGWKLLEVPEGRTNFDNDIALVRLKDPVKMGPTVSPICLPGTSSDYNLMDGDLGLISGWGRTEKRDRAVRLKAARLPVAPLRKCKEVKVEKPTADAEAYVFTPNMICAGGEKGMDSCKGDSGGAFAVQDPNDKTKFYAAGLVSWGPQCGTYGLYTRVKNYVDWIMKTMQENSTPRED
human activated C1s complement component, sequence (P09871 16-437 partner): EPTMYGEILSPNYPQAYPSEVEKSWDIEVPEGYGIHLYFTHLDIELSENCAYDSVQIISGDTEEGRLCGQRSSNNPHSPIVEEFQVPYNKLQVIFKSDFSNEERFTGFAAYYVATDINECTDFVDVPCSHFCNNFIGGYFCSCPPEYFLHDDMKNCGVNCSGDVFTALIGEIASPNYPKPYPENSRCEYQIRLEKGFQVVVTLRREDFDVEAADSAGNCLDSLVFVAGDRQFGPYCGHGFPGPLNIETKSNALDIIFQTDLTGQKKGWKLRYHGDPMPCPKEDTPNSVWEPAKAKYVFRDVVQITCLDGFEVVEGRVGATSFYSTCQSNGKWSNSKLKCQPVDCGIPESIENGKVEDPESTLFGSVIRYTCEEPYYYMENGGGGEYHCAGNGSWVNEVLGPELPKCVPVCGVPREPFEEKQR
Procedure: as §2, §3, §5, §7
Subcomponent “s” of Human Complement Component 1 (h C1s): Inhibition of human C1s was determined by the method described in [0092]-[0098] using native human activated C1s complement component from Calbiochem at 29 nM and Val-Ser-Arg-pNA (S2314) at 8 mM, 6 mM, and 4 mM as substrate; results are reported as Ki values (nanomolar).

[5] = biological target: human activated C1r complement component (Homo sapiens (Human), UniProt P00736); test: Inhibition of human C1r; assay type: biochemical; conditions: S2314 substrate; read-out: h C1r Ki
Procedure: as §2, §3, §5, §7

human alpha-thrombin = human alpha-thrombin (Homo sapiens (Human), UniProt P00734); test: Inhibition of human Factor IIa; assay type: biochemical; conditions: Pefachrome tPA substrate; read-out: h FIIa Ki
Procedure: as §2, §3, §5, §7

human Factor Xa = human Factor Xa (Homo sapiens (Human), UniProt P00742); test: Inhibition of human Factor Xa; assay type: biochemical; conditions: Pefachrome FXa substrate; read-out: h FXa Ki
human Factor Xa, sequence (P00742 235-488): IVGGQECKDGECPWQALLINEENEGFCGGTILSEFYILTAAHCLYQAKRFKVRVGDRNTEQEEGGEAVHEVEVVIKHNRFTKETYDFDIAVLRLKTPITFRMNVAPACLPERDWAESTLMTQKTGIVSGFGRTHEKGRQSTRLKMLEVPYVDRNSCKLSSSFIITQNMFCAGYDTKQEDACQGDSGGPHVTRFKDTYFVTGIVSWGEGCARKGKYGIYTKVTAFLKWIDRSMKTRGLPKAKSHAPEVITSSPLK
human Factor Xa, sequence (P00742 41-179 partner): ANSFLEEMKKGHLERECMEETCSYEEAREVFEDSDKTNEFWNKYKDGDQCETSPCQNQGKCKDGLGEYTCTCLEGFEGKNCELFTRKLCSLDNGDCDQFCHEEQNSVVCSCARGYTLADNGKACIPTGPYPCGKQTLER
Procedure: The inhibitory effect for the individual enzymes was determined in analogy to a previously disclosed method (Stürzebecher et al., J. Med. […] In the case of pseudo-first order kinetics, the reaction rates in the equilibrium state were determined by continuously recording the change in absorbance at 405 nm. […] The Ki values are the average of at least three determinations. Human Factor Xa (h FXa): […]

human Factor XIa = human Factor XIa (Homo sapiens (Human), UniProt P03951); test: Inhibition of human Factor XIa; assay type: biochemical; conditions: Pefachrome PCa substrate; read-out: h FXIa Ki
human Factor XIa, sequence (P03951 388-625): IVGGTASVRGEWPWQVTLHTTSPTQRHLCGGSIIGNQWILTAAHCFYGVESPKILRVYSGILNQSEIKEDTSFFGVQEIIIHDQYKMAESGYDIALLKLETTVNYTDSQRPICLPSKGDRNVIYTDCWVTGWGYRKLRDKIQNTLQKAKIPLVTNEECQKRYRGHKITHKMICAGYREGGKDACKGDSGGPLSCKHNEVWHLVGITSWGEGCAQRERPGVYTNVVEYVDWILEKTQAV
human Factor XIa, sequence (P03951 19-387 partner): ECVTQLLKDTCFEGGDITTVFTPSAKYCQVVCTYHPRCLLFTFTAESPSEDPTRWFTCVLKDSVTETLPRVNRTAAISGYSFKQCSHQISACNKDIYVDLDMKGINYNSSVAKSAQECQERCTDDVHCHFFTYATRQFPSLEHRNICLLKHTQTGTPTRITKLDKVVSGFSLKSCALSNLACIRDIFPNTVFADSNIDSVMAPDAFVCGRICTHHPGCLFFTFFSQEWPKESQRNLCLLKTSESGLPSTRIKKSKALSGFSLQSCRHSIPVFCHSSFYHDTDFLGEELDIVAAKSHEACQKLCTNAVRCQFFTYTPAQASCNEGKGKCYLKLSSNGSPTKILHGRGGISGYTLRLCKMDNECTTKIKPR
Procedure: as §2, §3, §5, §7

human alpha-FXIIa = human alpha-FXIIa (Homo sapiens (Human), UniProt P00748); test: Inhibition of human alpha-Factor XIIa; assay type: biochemical; conditions: CHA-Gly-Arg-pNA substrate; read-out: h FXIIa Ki
human alpha-FXIIa, sequence (P00748 373-615): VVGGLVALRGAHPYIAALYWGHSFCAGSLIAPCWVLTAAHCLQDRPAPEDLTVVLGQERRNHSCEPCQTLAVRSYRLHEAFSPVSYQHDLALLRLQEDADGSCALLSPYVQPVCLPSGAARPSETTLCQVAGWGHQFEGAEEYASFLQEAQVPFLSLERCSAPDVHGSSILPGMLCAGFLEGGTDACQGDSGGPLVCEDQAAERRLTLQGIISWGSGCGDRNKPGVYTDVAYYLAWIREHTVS
human alpha-FXIIa, sequence (P00748 20-372 partner): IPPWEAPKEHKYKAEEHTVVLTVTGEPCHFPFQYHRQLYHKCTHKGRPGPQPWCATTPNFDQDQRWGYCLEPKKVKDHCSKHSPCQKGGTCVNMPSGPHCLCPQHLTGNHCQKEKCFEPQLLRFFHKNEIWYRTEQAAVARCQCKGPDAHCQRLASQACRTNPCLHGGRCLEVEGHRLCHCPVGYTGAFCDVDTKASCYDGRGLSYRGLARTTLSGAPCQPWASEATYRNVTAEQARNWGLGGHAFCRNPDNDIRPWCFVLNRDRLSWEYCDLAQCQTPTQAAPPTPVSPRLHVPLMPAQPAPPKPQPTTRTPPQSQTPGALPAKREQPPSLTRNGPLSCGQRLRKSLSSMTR
Procedure: as §2, §3, §5, §7

human t-PA = human t-PA (Homo sapiens (Human), UniProt P00750); test: Inhibition of human tissue-type plasminogen activator; assay type: biochemical; conditions: Pefachrome tPA substrate; read-out: h t-PA Ki
human t-PA, sequence (P00750 36-562): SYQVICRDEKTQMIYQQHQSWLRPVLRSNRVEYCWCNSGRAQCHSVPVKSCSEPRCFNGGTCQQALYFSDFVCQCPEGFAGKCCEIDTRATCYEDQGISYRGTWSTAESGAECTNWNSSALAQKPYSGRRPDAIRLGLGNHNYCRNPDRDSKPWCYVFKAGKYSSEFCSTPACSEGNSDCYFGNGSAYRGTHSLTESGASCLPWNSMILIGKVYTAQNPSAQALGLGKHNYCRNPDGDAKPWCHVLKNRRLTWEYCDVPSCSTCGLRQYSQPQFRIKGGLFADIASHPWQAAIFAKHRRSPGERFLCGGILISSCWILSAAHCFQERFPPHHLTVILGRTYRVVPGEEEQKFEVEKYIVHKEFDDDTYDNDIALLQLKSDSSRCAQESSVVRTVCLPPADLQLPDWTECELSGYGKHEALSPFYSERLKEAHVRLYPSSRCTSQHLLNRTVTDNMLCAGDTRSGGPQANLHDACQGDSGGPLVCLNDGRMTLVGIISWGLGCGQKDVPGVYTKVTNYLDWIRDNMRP
Procedure: as §2, §3, §5, §7

trypsin = conditions: background; cited from earlier work
[6] = cited from earlier work

Row | Compound | Ki (plasmin [1]) | Ki (plasmin [2]) | Ki (plasma kallikrein) | Ki [3] | Ki (human urinary kallikrein) | Ki [4] | Ki [5] | Ki (human alpha-thrombin) | Ki (human Factor Xa) | Ki (human Factor XIa) | Ki (human alpha-FXIIa) | Ki (human t-PA) | Ki (trypsin) | risk of anaphylactic shock ([6]; first administration) | risk of anaphylactic shock ([6]; repeated administration within 200 days)
1 | N=C(N)c1ccc(CNC(=O)[C@@H]2CCN2C(=O)[C@H](NCC(=O)O)C2CCCCC2)cc1 [melagatran] | 700 nM |  |  |  |  |  |  |  |  |  |  |  |  |  | 
2 | N=C(N)c1ccc(CNC(=O)[C@H](CCC2CCNCC2)NC(=O)[C@@H](CCCc2cc[n+]([O-])cc2)NS(=O)(=O)Cc2ccccc2)cc1 [drawing 123] |  | 1 nM | 4 nM | 850 nM | > 200 µM | 9.5 µM | > 30 µM | 4.9 µM | 400 nM | 1400 nM | 870 nM | 2400 nM |  |  | 
3 | aprotinin |  |  |  |  |  |  |  |  |  |  |  |  | 0.1 nM | < 0.1% | 4-5%
4 | CCCC(=O)N1CCC(CC[C@@H](NS(=O)(=O)Cc2ccccc2)C(=O)N[C@@H](CCC2CCNCC2)C(=O)NCc2ccc(C(=N)N)cc2)CC1 |  | 0.6 nM | 2 nM | 1100 nM | > 200 µM | > 10 µM | > 15 µM | 5.5 µM | 2200 nM | 870 nM | 800 nM | 6100 nM |  |  | 
5 | N=C(N)c1ccc(CNC(=O)[C@H](CCC2CCNCC2)NC(=O)[C@@H](CCCc2ccncc2)NS(=O)(=O)Cc2ccccc2)cc1 |  | 0.4 nM | 2.7 nM | 600 nM | > 80 µM | 4.95 µM | > 50 µM | 1.2 µM | 850 nM | 500 nM | 1500 nM | 2300 nM |  |  | 
6 | N=C(N)c1ccc(CNC(=O)[C@H](CCC2CCNCC2)NC(=O)[C@@H](CCCc2cc[n+]([O-])cc2)NS(=O)(=O)Cc2ccccc2)cc1 [drawing 117] |  | 1 nM | 4 nM | 850 nM | > 200 µM | 10 µM | > 30 µM | 4.9 µM | 400 nM | 1400 nM | 870 nM | 2400 nM |  |  | 
